# Activity calls are given as the source filed them. The rule behind the calls is not given here.
# Legend:
# [1] = Toxicity in BALB/c mouse xenografted with human HCT-116 cells assessed as change in heart weight at 1 to 10 mg/kg, ip every day for 14 days; format: organism-based; details: in vivo, 336 h, dose 1-10 mg/kg, time 14 day
# HCT-116 [2] = test: Induction of apoptosis in human HCT-116 cells assessed as late apoptotic cells at 10 uM measured after 24 hrs by FITC Annexin V/PI apoptosis detection assay (reference value: 0%); format: functional
# [3] = MRT infinity in male Sprague-Dawley rat at 1 mg/kg, iv measured up to 24 hrs by LCMS-MS analysis; format: ADME, organism-based; details: in vivo
# [4] = system: Tyrosyl-DNA phosphodiesterase 1/Deoxyribonucleic acid; test: Stabilization of TDP1/DNA complex in human HCT-116 cells at 100 uM ionizing radiation with 4 GY by Cellular Thermal Shift Assay (CETSA); format: cell-based
# HCT-116 [5] = test: Induction of 4GY ionizing radiation (IR) induced apoptosis in human HCT-116 cells assessed as viable cells at 5 uM measured after 24 hrs by FITC Annexin V/PI apoptosis detection assay (reference value: 66.88%); format: functional; details: read-out: Activity
# [6] = Toxicity in BALB/c mouse xenografted with human HCT-116 cells assessed as change in spleen weight at 1 to 10 mg/kg, ip every day for 14 days; format: organism-based; details: in vivo, 336 h, dose 1-10 mg/kg, time 14 day
# HCT-116 [7] = test: Effect on Lig4 expression in wild type human HCT-116 cells assessed as change in mRNA level at 5 to 10 uM radiated with 4 GY ionizing radiation (IR) measured after 24 hrs by qRT-PCR analysis; format: functional, cell-based; details: dose 5-10 µM
# HCT-116 [8] = test: Induction of ROS generation in human HCT-116 cells assessed as intracellular ROS level at 10 uM under 4GY ionizing radiation (IR) measured after 20 mins by flow cytometry (reference value: 7.2%); format: functional
# HCT-116 [9] = test: Effect on Ku70/80 expression in wild type human HCT-116 cells assessed as change in mRNA level at 5 to 10 uM measured after 24 hrs by qRT-PCR analysis; format: functional, cell-based; details: dose 5-10 µM
# HCT-116 [10] = test: Synergistic cytotoxicity against human HCT116 cells assessed as combination index at 5 uM incubated for 48 hrs in presence of 2GY ionizing radiation (IR); format: functional
# HCT-116 [11] = test: Induction of 4GY ionizing radiation (IR) induced apoptosis in human HCT-116 cells assessed as late apoptotic cells at 5 uM measured after 24 hrs by FITC Annexin V/PI apoptosis detection assay (reference value: 14.32%); format: functional
# HCT-116 [12] = test: Reduction of XRCC4 expression in wild type human HCT-116 cells assessed as reduction in mRNA level at 5 to 10 uM radiated with 4 GY ionizing radiation (IR) measured after 24 hrs by qRT-PCR analysis; format: functional, cell-based; details: dose 5-10 µM
# HCT-116 [13] = test: Reduction of XRCC4 expression in wild type human HCT-116 cells assessed as reduction in mRNA level at 5 to 10 uM measured after 24 hrs by qRT-PCR analysis; format: functional, cell-based; details: dose 5-10 µM
# HCT-116 [14] = test: Induction of ROS generation in human HCT-116 cells assessed as fold increase in intracellular ROS level at 10 uM under […] ionizing radiation (IR) measured after 20 mins by ELIASA analysis; format: functional
# HCT-116 [15] = test: Induction of ionizing radiation (IR) induced gamma-H2AX level in human HCT-116 cells at 5 uM measured after 3 hrs by Western blot analysis; format: functional, cell-based
# HCT-116 [16] = test: In vivo radiosensitizing activity in human HCT-116 cells xenografted in BALB/c mouse assessed as sensitization of 1 GY ionizing radiation induced reduction in tumor weight at 1 mg/kg, ip every day for 14 days radiated for every 2 days once (reference value: 35%); format: functional; parameters: scale not given: the % may be the effect or the level left; details: time 14 day
# HCT-116 [17] = test: Reduction of XRCC4 expression in wild type human HCT-116 cells assessed as reduction in protein level at 5 to 10 uM measured after 24 hrs by Western blot analysis; format: functional, cell-based; details: dose 5-10 µM
# [18] = Toxicity in human NCM460 cells assessed as 2GY ionizing radiation radiosensitisation mediated cell killing; format: cell-based
# [19] = AUC infinity in male Sprague-Dawley rat at 5 mg/kg, IG measured up to 24 hrs by LCMS-MS analysis; format: ADME, organism-based; details: in vivo, po
# [20] = Toxicity in BALB/c mouse xenografted with human HCT-116 cells assessed as change in lung weight at 1 to 10 mg/kg, ip every day for 14 days; format: organism-based; details: in vivo, 336 h, dose 1-10 mg/kg, time 14 day
# [21] = Induction of 4GY ionizing radiation (IR) induced cell cycle arrest in human HCT-116 cells assessed as accumulation of cells at S phase at 10 uM measured after 24 hrs by Propidium iodide (PI) staining based assay (reference value: 11.48%); format: functional
# [22] = Induction of 4GY ionizing radiation (IR) induced cell cycle arrest in human HCT-116 cells assessed as accumulation of cells at G0/G1 phase at 10 uM measured after 24 hrs by Propidium iodide (PI) staining based assay (reference value: 65.99%); format: functional
# HCT-116 [23] = test: Reduction of XRCC4 expression in wild type human HCT-116 cells assessed as reduction in protein level at 5 to 10 uM radiated with 4 GY ionizing radiation (IR) measured after 24 hrs by Western blot analysis; format: functional, cell-based; details: dose 5-10 µM
# HCT-116 [24] = test: Induction of 4GY ionizing radiation (IR) induced apoptosis in human HCT-116 cells assessed as early apoptotic cells at 10 uM measured after 24 hrs by FITC Annexin V/PI apoptosis detection assay (reference value: 17.50%); format: functional
# [25] = Half life in male Sprague-Dawley rat at 5 mg/kg, IG measured up to 24 hrs by LCMS-MS analysis; format: ADME, organism-based; details: in vivo, po
# [26] = Half life in male Sprague-Dawley rat at 1 mg/kg, iv measured up to 24 hrs by LCMS-MS analysis; format: ADME, organism-based; details: in vivo
# HCT-116 [27] = test: Induction of apoptosis in human HCT-116 cells assessed as induction of 4GY ionizing radiation (IR) induced cleaved PARP at 5 uM measured after 24 hrs by Western blot analysis; format: functional, cell-based
# [28] = Toxicity in BALB/c mouse xenografted with human HCT-116 cells assessed as change in kidney weight at 1 to 10 mg/kg, ip every day for 14 days; format: organism-based; details: in vivo, 336 h, dose 1-10 mg/kg, time 14 day
# [29] = Toxicity in BALB/c mouse xenografted with human HCT-116 cells assessed as change in kidney weight at 1 to 10 mg/kg, ip every day for 14 days radiated for every 2 days once; format: organism-based; details: in vivo, 336 h, dose 1-10 mg/kg, time 14 day
# [30] = Toxicity in BALB/c mouse xenografted with human HCT-116 cells assessed as change in body weight at 1 mg/kg, ip every day for 14 days; format: organism-based; details: in vivo, 336 h, time 14 day
# HCT-116 [31] = test: Anti-tumor activity against human HCT-116 cells xenografted in BALB/c mouse assessed as tumor growth inhibition at 1 mg/kg, ip every day for 14 days; format: functional, organism-based; details: time 14.0 day
# HCT-116 [32] = test: Upregulation of p53 signaling pathway in human HCT-116 cells at 5 uM measured after 24 hrs by KEGG analysis; format: functional, cell-based
# HCT-116 [33] = test: Reduction in recruitment of XRCC4 at damage site of human HCT-116 cells at 5 uM measured after 3 hrs by fluorescence colocalization assay; format: functional, cell-based
# HCT-116 [34] = test: Induction of PIG3 transcription level in human HCT-116 cells measured after 24 hrs; format: functional, cell-based
smiles,measurement,setting,value
COc1cc2c(=O)n(CCN(C)C)c3c4cc5c(cc4ccc3c2cc1OCCN1CCOCC1)OCO5,Activity,[1],Non-toxic
same,Activity,HCT-116 [2],13.67%
same,MRT inf,[3],3.33 h
same,Activity,[4],Active; Coincubation With Ionizing Radiation Showed Greater Complex Formation
same,viability at 5 µM,HCT-116 [5],61.3%
same,Activity,[6],Non-toxic
same,Activity,HCT-116 [7],inactive
same,Activity,HCT-116 [8],27.6%
same,Activity,HCT-116 [9],inactive
same,CI,HCT-116 [10],<0.3
same,Activity,HCT-116 [11],18.62%
same,Activity,HCT-116 [12],Active
same,Activity,HCT-116 [13],Active
same,fold change (FC),HCT-116 [14],2.1
same,Activity,HCT-116 [15],Active
same,Activity,HCT-116 [16],60%
same,Activity,HCT-116 [17],Active
same,Activity,[18],Non-toxic
same,AUC(0-inf),[19],735 ng·h/mL
same,Activity,[20],Non-toxic
same,Activity,[21],12.88%
same,Activity,[22],20.79%
same,Activity,HCT-116 [23],Active
same,Activity,HCT-116 [24],19.85%
same,half-life,[25],278 min
same,half-life,[26],172 min
same,Activity,HCT-116 [27],Active
same,Activity,[28],Non-toxic
same,Activity,[29],Non-toxic
same,Activity,[30],Non-toxic
same,TGI,HCT-116 [31],inactive
same,Activity,HCT-116 [32],Active
same,Activity,HCT-116 [33],Active
same,Activity,HCT-116 [34],Dose-dependent-effect

# — ChEMBL document CHEMBL6134907, “Synthesis of 5,9- and 5,8-Diaminoalkoxy Substituted Benzophenanthridinone Analogues as Tyrosyl-DNA Phosphodiesterase 1 Inhibitors and Their Radiosensitizing Activity” (J Med Chem, 2025)
